Test results as given in patent US11453690B2, “Receptor inhibitor, pharmaceutical composition comprising same, and use thereof” (BEIJING TIDE PHARMACEUTICAL CO., LTD., priority 2018, dated 2022).
pIC50: −log10 of the molar value.

Molecular target: AT2 Receptor (AT2R) (Homo sapiens (Human), UniProt P50052)
Assay: Measurement of inhibitory activity on AT2 receptor (Tag-lite HTRF, Tb-labeled AT2R cells, angiotensin receptor red agonist)
Type: binding
Details: 1 h room temperature
Experimental: Measurement of Inhibitory Activity on AT1 Receptor ([…])/AT2 Receptor (AT2R)
Through the following steps, the inhibitory activity of the compound on AT1R/AT2R (IC50 value) was determined:
1) An appropriate amount of 1×TLB (Tag-lite Buffer) was prepared and well mixed for use.
2) The compound was diluted by 10 times with ddH2O or DMSO. The compound was then dilute to 4 times of the working concentration with 1×TLB and mixed well for use.
3) 8600 nM Tag-lite angiotensin receptor red agonist was diluted to 12 nM (4×Kd) with 1×TLB.
4) 5 ml 1×TLB was taken into a 15 ml centrifuge tube.
5) After thawing 1 tube of Tb-labeled AT1R/AT2R cells in a 37° C. water bath, the cells were quickly transferred to the 1×TLB in step 4), mixed gently, and centrifuged at 1200 g for 5 minutes at room temperature.
6) The supernatant was aspirated gently, and the cells were resuspended and mixed in 2.7 ml 1×TLB, and then placed at room temperature until use.
7) 10 μl cells were added to all test wells, and 5 μl 4× working solution of the compound from step 2) was added to the corresponding test wells. 5 μl 4× Tag-lite angiotensin receptor red agonist well diluted in step 3) was added to all test wells.
8) After leaving the reaction plate at room temperature for 1 h, data were measured and analyzed using Envision HTRF Reader, and the half inhibitory concentration (IC50) of the compound on AT1R/AT2R was calculated with the GraphPad Prism four-parameter equation.

Chain of AT2 Receptor (AT2R) (P50052 whole entry): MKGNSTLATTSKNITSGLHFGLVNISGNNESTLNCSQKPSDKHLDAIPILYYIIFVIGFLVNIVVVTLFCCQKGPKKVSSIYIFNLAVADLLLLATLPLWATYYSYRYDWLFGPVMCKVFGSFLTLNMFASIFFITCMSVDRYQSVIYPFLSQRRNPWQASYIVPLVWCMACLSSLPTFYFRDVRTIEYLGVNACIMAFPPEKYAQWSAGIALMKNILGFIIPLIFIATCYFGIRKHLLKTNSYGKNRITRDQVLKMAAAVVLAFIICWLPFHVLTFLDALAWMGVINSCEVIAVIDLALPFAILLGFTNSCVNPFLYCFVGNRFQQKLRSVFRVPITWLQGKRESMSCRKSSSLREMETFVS

Row | Compound | pIC50
1 | C#Cc1ccc(CN(C)C(=O)N2[C@H]3CC[C@@H]2[C@@H](C(=O)O)N(C(=O)N(c2ccccc2)c2ccccc2)C3)cc1 [Compound C171, (1R,2S,5S)-3-(diphenylcarbamoyl)-8-((4-ethynylbenzyl) (methyl)carbamoyl)-3,8-diazabicyclo [3.2.1]octane-2-carboxylic acid] | 7.72
2 | CN(Cc1ccccc1)C(=O)N1[C@H]2CC[C@@H]1[C@@H](C(=O)O)N(C(=O)C(C)(c1ccccc1)c1ccccc1)C2 [Compound C173, (1R,2S,5S)-8-(benzyl(methyl)carbamoyl)-3-(2,2-diphenylpropionyl)-3,8-diazabicyclo [3.2.1]octane-2-carboxylic acid] | 8.25
3 | O=C(O)[C@@H]1[C@H]2CC[C@@H](CN1C(=O)N(c1ccccc1)c1ccccc1)N2C(=O)/C=C/c1ccccc1 [Compound C174, (1R,2S,5S)-8-cinnamoyl-3-(diphenylcarbamoyl)-3,8-diazabicyclo [3.2.1]octane-2-carboxylic acid] | 6.65
4 | O=C(O)[C@@H]1[C@H]2CC[C@@H](CN1C(=O)N(c1ccccc1)c1ccccc1)N2S(=O)(=O)c1ccccc1 [Compound C182, (1R,2S,5S)-3-(diphenylcarbamoyl)-8-(phenylsulfulyl)-3,8-diazabicyclo [3.2.l]octane-2-carboxylic acid] | 6.36
5 | Cc1cc(CN(C)C(=O)N2[C@H]3CC[C@@H]2[C@@H](C(=O)O)N(C(=O)N(c2ccccc2)c2ccccc2)C3)cs1 [Compound C185] | 7.41
6 | CN(Cc1csc(Cl)c1)C(=O)N1[C@H]2CC[C@@H]1[C@@H](C(=O)O)N(C(=O)N(c1ccccc1)c1ccccc1)C2 [Compound C186, (1R,2S,5S)-8-(((5-chlorothiophene-3-yl)methyl) (methyl)carbamoyl)-3-(diphenylcarbamoyl)-3,8-diazabicyclo [3.2.1]octane-2-carboxylic acid] | 7.19
7 | CN(Cc1ccsc1)C(=O)N1[C@H]2CC[C@@H]1[C@@H](C(=O)O)N(C(=O)C(c1ccccc1)c1ccccc1)C2 [Compound C187, (1R,2S,5S)-3-(2,2-diphenylacetyl)-8-(methyl(thiophene-3-ylmethyl)carbamoyl)-3,8-diazabicyclo [3.2.1]octane-2-carboxylic acid] | 8.43
8 | CCN(Cc1ccsc1)C(=O)N1[C@H]2CC[C@@H]1[C@@H](C(=O)O)N(C(=O)C(c1ccccc1)c1ccccc1)C2 [Compound C188, (1R,2S,5S)-3-(2,2-diphenylacetyl)-8-(ethyl(thiophene-3-ylmethyl)carbamoyl)-3,8-diazabicyclo [3.2.1]octane-2-carboxylic acid] | 8.15
9 | Cc1ccc(COC(=O)N2[C@H]3CC[C@@H]2[C@@H](C(=O)O)N(C(=O)C(c2ccccc2)c2ccccc2)C3)cc1 [Compound C194, (1R,2S,5S)-3-(2,2-diphenylacetyl)-8-(((4-methylbenzyl)oxy)carbonyl)-3,8-diazabicyclo [3.2.1]octane-2-carboxylic acid] | 6.89
10 | O=C(O)[C@@H]1[C@H]2CC[C@@H](CN1C(=O)N(c1ccccc1)c1ccccc1)N2C(=O)N(Cc1ccsc1)C1CC1 [Compound C196, (1R,2S,5S)-8-(cyclopropyl (thiophene-3-yl-methyl)carbamoyl)-3-(diphenylcarbamoyl)-3,8-diazabicyclo [3.2.1]octane-2-carboxylic acid] | 8.79
11 | CC1(N(Cc2ccsc2)C(=O)N2[C@H]3CC[C@@H]2[C@@H](C(=O)O)N(C(=O)N(c2ccccc2)c2ccccc2)C3)CC1 [Compound C198] | 7.99
12 | O=C(O)[C@@H]1[C@H]2CC[C@@H](CN1C(=O)N(c1ccccc1)c1ccccc1)N2C(=O)N(Cc1cccs1)C1CC1 [Compound C200, (1R,2S,5S)-8-(cyclopropyl (thiophene-2-ylmethyl)carbamoyl)-3-(diphenylcarbamoyl)-3,8-diazabicyclo [3.2.1]octane-2-carboxylic acid] | 8.49
13 | CCN(Cc1cccs1)C(=O)N1[C@H]2CC[C@@H]1[C@@H](C(=O)O)N(C(=O)N(c1ccccc1)c1ccccc1)C2 [Compound C201, (1R,2S,5S)-3-(diphenylcarbamoyl)-8-(ethyl(thiophene-2-ylmethyl)carbamoyl)-3,8-diazabicyclo [3.2.1]octane-2-carboxylic acid] | 7.73
14 | CCN(Cc1ccc(C)s1)C(=O)N1[C@H]2CC[C@@H]1[C@@H](C(=O)O)N(C(=O)N(c1ccccc1)c1ccccc1)C2 [Compound C202, (1R,2S,5S)-3-(diphenylcarbamoyl)-8-(ethyl((5-methylthiophen-2-yl)methyl)carbamoyl)-3,8-diazabicyclo [3.2.1]octane-2-carboxylic acid] | 8.41
15 | Cc1ccc(CN(C)C(=O)N2[C@H]3CC[C@@H]2[C@@H](C(=O)O)N(C(=O)N(c2ccccc2)c2ccccc2)C3)s1 [Compound C203, (1R,2S,5S)-3-(diphenylcarbamoyl)-8-(methyl ((5-methylthiophen-2-yl)methyl)carbamoyl)-3,8-diazabicyclo [3.2.1]octane-2-carboxylic acid] | 7.86
16 | Cc1ccc(CN(C(=O)N2[C@H]3CC[C@@H]2[C@@H](C(=O)O)N(C(=O)N(c2ccccc2)c2ccccc2)C3)C2CC2)s1 [Compound C204] | 8.31
17 | O=C(O)[C@@H]1[C@H]2CC[C@@H](CN1C(=O)N(c1ccccc1)c1ccccc1)N2C(=O)N(Cc1ccsc1)CC1CC1 [Compound C205, (1R,2S,5S)-8-((cyclopropylmethyl) (thiophene-3-ylmethyl)carbamoyl)-3-(diphenylcarbamoyl)-3,8-diazabicyclo [3.2.1]octane-2-carboxylic acid] | 7.37
18 | CCN(Cc1ccsc1)C(=O)N1[C@H]2CC[C@@H]1[C@@H](C(=O)O)N(C(=O)N(c1ccccc1)c1ccccc1)C2 [Compound C207, (1R,2S,5S)-3-(diphenylcarbamoyl)-8-(ethyl (thiophene-3-ylmethyl)carbamoyl)-3,8-diazabicyclo [3.2.1]octane-2-carboxylic acid] | 7.98
19 | CCN(Cc1csc(C)c1)C(=O)N1[C@H]2CC[C@@H]1[C@@H](C(=O)O)N(C(=O)N(c1ccccc1)c1ccccc1)C2 [Compound C208, (1R,2S,5S)-3-(diphenylcarbamoyl)-8-(ethyl((5-methylthiophen-3-yl)methyl)carbamoyl)-3,8-diazabicyclo [3.2.1]octane-2-carboxylic acid] | 7.93
20 | CCN(Cc1cscn1)C(=O)N1[C@H]2CC[C@@H]1[C@@H](C(=O)O)N(C(=O)N(c1ccccc1)c1ccccc1)C2 [Compound C209, (1R,2S,5S)-3-(diphenylcarbamoyl)-8-(ethyl(thiazole-4-ylmethyl)carbamoyl)-3,8-diazabicyclo [3.2.1]octane-2-carboxylic acid] | 7.09
21 | O=C(O)[C@@H]1[C@H]2CC[C@@H](CN1C(=O)N(c1ccccc1)c1ccccc1)N2c1nccc(-c2ccccc2)n1 [Compound C210, (1R,2S,5S)-3-(diphenylcarbamoyl)-8-(4-phenylpyrimidine-2-yl)-3,8-diazabicyclo[3.2.1] octane-2-carboxylic acid] | 7.30
22 | CCN(Cc1ccccc1Cl)C(=O)N1[C@H]2CC[C@@H]1[C@@H](C(=O)O)N(C(=O)N(c1ccccc1)c1ccccc1)C2 [Compound C212, (1R,2S,SS)-8-((2-chlorobenzyl) (ethyl)carbamoyl)-3-(diphenylcarbamoyl)-3,8-diazabicyclo [3.2.1]octane-2-carboxylic acid] | 8.04
23 | CC(C)c1ccc(CN(C)C(=O)N2[C@H]3CC[C@@H]2[C@@H](C(=O)O)N(C(=O)N(c2ccccc2)c2ccccc2)C3)cc1 [Compound C214, (1R,2S,5S)-3-(diphenylcarbamoyl)-8-((4-isopropylbenzyl) (methyl)carbamoyl)-3,8-diazabicyclo [3.2.1]octane-2-carboxylic acid] | 7.95
24 | C=C(C)c1ccc(CN(C)C(=O)N2[C@H]3CC[C@@H]2[C@@H](C(=O)O)N(C(=O)N(c2ccccc2)c2ccccc2)C3)cc1 [Compound C215] | 7.58
25 | CCN(Cc1ccc(Cl)cc1)C(=O)N1[C@H]2CC[C@@H]1[C@@H](C(=O)O)N(C(=O)N(c1ccccc1)c1ccccc1)C2 [Compound C217, (1R,2S,5S)-8-((4-chlorobenzyl) (ethyl)carbamoyl)-3-(diphenylcarbamoyl)-3,8-diazabicyclo [3.2.1]octane-2-carboxylic acid] | 8.04
26 | O=C(O)[C@@H]1[C@H]2CC[C@@H](CN1C(=O)N(c1ccccc1)c1ccccc1)N2C(=O)N(Cc1ccc(Cl)cc1)CC1CC1 [Compound C218, (1R,2S,5S)-8-((4-chlorobenzyl) (cyclopropylmethyl)carbamoyl)-3-(diphenylcarbamoyl)-3,8-diazabicyclo [3.2.1]octane-2-carboxylic acid] | 7.94
27 | O=C(O)[C@@H]1[C@H]2CC[C@@H](CN1C(=O)N(c1ccccc1)c1ccccc1)N2C(=O)CCc1ccccc1 [Compound C221, (1R,2S,5S)-3-(diphenylcarbamoyl)-8-(3-phenylpropionyl)-3,8-diazabicyclo [3.2.1]octane-2-carboxylic acid] | 7.12
28 | O=C(O)[C@@H]1[C@H]2CC[C@@H](CN1C(=O)C(c1ccccc1)c1ccccc1)N2C(=O)CCc1ccccc1 [Compound C222, (1R,2S,5S)-3-(2,2-diphenylacetyl)-8-(3-phenylpropionyl)-3,8-diazabicyclo [3.2.1]octane-2-carboxylic acid] | 7.93
